Test results published in ChEMBL document CHEMBL1201862, “PubChem BioAssay data set” (2004).
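Assay format: 96-well plates, 48-hour exposure. Here, GI50 denotes the concentration required for 50% inhibition of growth.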 The source made the active and inactive calls. Cut-off read from the data, not from the text of the source: active = GI50 up to about 1.1 µM and inactive = higher.

Legend:
Experiment in all cases: NCI tumour cell line growth inhibition, 48 h
SF-295 = test system: SF-295
EKVX = test system: EKVX
MDA-N = test system: MDA-N
SW-620 = test system: SW-620
MCF7 = test system: MCF7
NCI-H460 = test system: NCI-H460
Malme-3M = test system: Malme-3M
NCI-H23 = test system: NCI-H23
HCT-15 = test system: HCT-15
MDA-MB-231 = test system: MDA-MB-231
T47D = test system: T47D
MDA-MB-435 = test system: MDA-MB-435
UO-31 = test system: UO-31
DU-145 = test system: DU-145
SK-OV-3 = test system: SK-OV-3
OVCAR-4 = test system: OVCAR-4
NCI-H522 = test system: NCI-H522
SF-268 = test system: SF-268

SMILES | GI50 (SF-295) | GI50 (EKVX) | GI50 (MDA-N) | GI50 (SW-620) | GI50 (MCF7) | GI50 (NCI-H460) | GI50 (Malme-3M) | GI50 (NCI-H23) | GI50 (HCT-15) [µM] | GI50 (MDA-MB-231) | GI50 (T47D) | GI50 (MDA-MB-435) | GI50 (UO-31) | GI50 (DU-145) | GI50 (SK-OV-3) | GI50 (OVCAR-4) | GI50 (NCI-H522) | GI50 (SF-268)
COc1ccc(C(=O)/C=C/c2ccc(O)c(O)c2)c(OC)c1 | 3.66 µM (inactive) | 11.8 µM (inactive) | 0.454 µM (active) | 1.22 µM (inactive) | 0.301 µM (active) | 3.04 µM (inactive) | 4.65 µM (inactive) | 2.31 µM (inactive) | 0.292 | 2.71 µM (inactive) | 1.55 µM (inactive) | 0.47 µM (active) | 9.33 µM (inactive) | 3.16 µM (inactive) | 5.15 µM (inactive) | 12.4 µM (inactive) | 0.245 µM (active) | 1.4 µM (inactive)
CCCCn1cnc2c(SC)ncnc21 | > 100 µM (inactive) | 41.7 µM (inactive) | > 100 µM (inactive) | > 100 µM (inactive) | > 100 µM (inactive) | > 100 µM (inactive) | > 100 µM (inactive) | > 100 µM (inactive) | > 100 | > 100 µM (inactive) | > 100 µM (inactive) | > 100 µM (inactive) | > 100 µM (inactive) | > 100 µM (inactive) | > 100 µM (inactive) | > 100 µM (inactive) | > 100 µM (inactive) | > 100 µM (inactive)
COC(=O)c1cc(CC2Cc3cc4c(cc3C2=O)CCC4)cc2c1CCC2 (stereo not drawn) | 35.1 µM (inactive) | > 100 µM (inactive) | 70.6 µM (inactive) | > 100 µM (inactive) | 45.8 µM (inactive) | > 100 µM (inactive) | 37.8 µM (inactive) | > 100 µM (inactive) | > 100 | > 100 µM (inactive) | > 100 µM (inactive) | > 100 µM (inactive) | > 100 µM (inactive) | > 100 µM (inactive) | > 100 µM (inactive) | 33.2 µM (inactive) | 54.3 µM (inactive) | > 100 µM (inactive)
O=C1/C(=C/c2ccc(O)cc2)CCc2ccccc21 | 28 µM (inactive) | 23 µM (inactive) | 22.1 µM (inactive) | 19.4 µM (inactive) | 6.38 µM (inactive) | 29.3 µM (inactive) | 20.7 µM (inactive) | 23.4 µM (inactive) | 18.8 | 20.5 µM (inactive) | 50.6 µM (inactive) | 21.5 µM (inactive) | 19.6 µM (inactive) | 24.8 µM (inactive) | > 55.6 µM (inactive) | 18.5 µM (inactive) | 3.05 µM (inactive) | 16.1 µM (inactive)
Clc1ccc(/C=N/c2ccc3c(c2)Cc2ccccc2-3)c(Cl)c1 | > 100 µM (inactive) | > 100 µM (inactive) | 53.2 µM (inactive) | > 100 µM (inactive) | > 100 µM (inactive) | > 100 µM (inactive) | > 100 µM (inactive) | > 100 µM (inactive) | 40.6 | > 100 µM (inactive) | > 100 µM (inactive) | 50.7 µM (inactive) | > 100 µM (inactive) | > 100 µM (inactive) | > 100 µM (inactive) | > 100 µM (inactive) | > 100 µM (inactive) | > 100 µM (inactive)
Clc1ccccc1-c1nn2c(CCCCCCCCc3nnc4sc(-c5ccccc5Cl)nn34)nnc2s1 | > 100 µM (inactive) | > 100 µM (inactive) | > 100 µM (inactive) | > 100 µM (inactive) | 52.2 µM (inactive) | > 100 µM (inactive) | > 100 µM (inactive) | > 100 µM (inactive) | > 100 | 87.7 µM (inactive) | > 100 µM (inactive) | > 100 µM (inactive) | > 100 µM (inactive) | > 100 µM (inactive) | > 100 µM (inactive) | > 100 µM (inactive) | 77.3 µM (inactive) | > 100 µM (inactive)
CC(=O)NC(Cc1ccc(O)cc1)C(=O)O (stereo not drawn) | > 100 µM (inactive) | > 100 µM (inactive) | > 100 µM (inactive) | > 100 µM (inactive) | > 100 µM (inactive) | > 100 µM (inactive) | > 100 µM (inactive) | > 100 µM (inactive) | > 100 | > 100 µM (inactive) | > 100 µM (inactive) | > 100 µM (inactive) | > 100 µM (inactive) | > 100 µM (inactive) | > 100 µM (inactive) | > 100 µM (inactive) | > 100 µM (inactive) | > 100 µM (inactive)
c1ccc2c[n+](Cc3ccnc4ccccc34)ccc2c1 | > 100 µM (inactive) | 71 µM (inactive) | > 100 µM (inactive) | > 100 µM (inactive) | > 100 µM (inactive) | > 100 µM (inactive) | > 100 µM (inactive) | > 100 µM (inactive) | > 100 | > 100 µM (inactive) | > 100 µM (inactive) | > 100 µM (inactive) | > 100 µM (inactive) | > 100 µM (inactive) | > 100 µM (inactive) | > 100 µM (inactive) | > 100 µM (inactive) | > 100 µM (inactive)
Clc1nc2c(C#Cc3ccccc3)ncnc2n1C1CCCCO1 (stereo not drawn) | 22.6 µM (inactive) | 2.55 µM (inactive) | 8.47 µM (inactive) | 16.3 µM (inactive) | 8.32 µM (inactive) | 15.7 µM (inactive) | 17.6 µM (inactive) | 12.9 µM (inactive) | 12.2 | 16.6 µM (inactive) | 19.1 µM (inactive) | 7 µM (inactive) | 11.9 µM (inactive) | 19 µM (inactive) | 27.6 µM (inactive) | 9.51 µM (inactive) | 7.94 µM (inactive) | 14 µM (inactive)
CC(C)(C)OC(=O)C1=C(N)N(Cc2ccccc2)C2(C)C=CC(=O)C=C12 (stereo not drawn) | 14.9 µM (inactive) | 5.73 µM (inactive) | 4.79 µM (inactive) | 2.37 µM (inactive) | 2.5 µM (inactive) | 15.5 µM (inactive) | 4.92 µM (inactive) | 9.29 µM (inactive) | 3.21 | 6.98 µM (inactive) | 3.1 µM (inactive) | 4.02 µM (inactive) | 3.52 µM (inactive) | 4.04 µM (inactive) | 19.5 µM (inactive) | 3.36 µM (inactive) | 1.67 µM (inactive) | 2.18 µM (inactive)
CCOC(=O)C(NC(=O)CC)(N1CCN(c2cc3c(cc2F)c(=O)c(C(=O)O)cn3C2CC2)CC1)C(F)(F)F (stereo not drawn) | > 100 µM (inactive) | > 100 µM (inactive) | > 100 µM (inactive) | > 100 µM (inactive) | > 100 µM (inactive) | > 100 µM (inactive) | > 100 µM (inactive) | > 100 µM (inactive) | > 100 | 52.2 µM (inactive) | > 100 µM (inactive) | > 100 µM (inactive) | > 100 µM (inactive) | > 100 µM (inactive) | > 100 µM (inactive) | > 100 µM (inactive) | > 100 µM (inactive) | > 100 µM (inactive)
CCOC(=O)c1c(CN2CCCC2)n(-c2ccccc2)c2cc(Br)c(OC)cc12 | 14.8 µM (inactive) | 20 µM (inactive) | 29.3 µM (inactive) | 18 µM (inactive) | 6.87 µM (inactive) | 6.89 µM (inactive) | 16.7 µM (inactive) | 20.5 µM (inactive) | 14.4 | 17.2 µM (inactive) | 14.5 µM (inactive) | 26.9 µM (inactive) | 11.5 µM (inactive) | 17.7 µM (inactive) | 25.5 µM (inactive) | 33.4 µM (inactive) | 13.7 µM (inactive) | 46.6 µM (inactive)
C/C(=C\c1ccccc1)C(=O)NCc1ccc(C(=O)NCCc2c[nH]c3ccccc23)cc1 | > 100 µM (inactive) | 48.9 µM (inactive) | > 100 µM (inactive) | > 100 µM (inactive) | 24.3 µM (inactive) | 25.9 µM (inactive) | > 100 µM (inactive) | 80.4 µM (inactive) | > 100 | > 100 µM (inactive) | > 100 µM (inactive) | 78 µM (inactive) | 51.6 µM (inactive) | > 100 µM (inactive) | > 100 µM (inactive) | 86.5 µM (inactive) | 69 µM (inactive) | > 100 µM (inactive)
Cc1ccc(S(=O)(=O)NNC(=S)Nc2cccc3ccccc23)cc1 | 34.7 µM (inactive) | 38.3 µM (inactive) | 55.3 µM (inactive) | > 100 µM (inactive) | 31.6 µM (inactive) | > 100 µM (inactive) | 33.3 µM (inactive) | 32.3 µM (inactive) | 67.5 | 54.8 µM (inactive) | 39.5 µM (inactive) | 41.5 µM (inactive) | 43.4 µM (inactive) | 69 µM (inactive) | 43.3 µM (inactive) | 22.3 µM (inactive) | 16.7 µM (inactive) | 70.6 µM (inactive)
CN(C)/N=C1\C=C2CC[C@H](O[Si](C)(C)C(C)(C)C)[C@@]2(C)CC1 | 16.4 µM (inactive) | 21.7 µM (inactive) | 19.9 µM (inactive) | 17.5 µM (inactive) | 15.6 µM (inactive) | 17.3 µM (inactive) | 15.6 µM (inactive) | 23.2 µM (inactive) | 17.6 | 16.6 µM (inactive) | 12.2 µM (inactive) | 16.4 µM (inactive) | 16.3 µM (inactive) | 15.8 µM (inactive) | 24.9 µM (inactive) | 14.9 µM (inactive) | 10.4 µM (inactive) | 19.7 µM (inactive)
CC(C)OC(=O)c1ccc(CCC2=CC(=O)C(Br)=CC2=O)cc1 | 19.9 µM (inactive) | 16.3 µM (inactive) | 16.4 µM (inactive) | 15.5 µM (inactive) | 17.7 µM (inactive) | 20.7 µM (inactive) | 15.7 µM (inactive) | 13.2 µM (inactive) | 15.4 | 17.2 µM (inactive) | 19.6 µM (inactive) | 16.9 µM (inactive) | 13.8 µM (inactive) | 23.7 µM (inactive) | 40.6 µM (inactive) | 5.75 µM (inactive) | 5.56 µM (inactive) | 16 µM (inactive)
